In patent publication US7786141B2 (Vertex Pharmaceuticals Incorporated, priority 2004, dated 2010):
Read-outs that look alike come from different tables or passages of the source.

Tests used:
M1 muscarinic receptor = target: T1, M1 muscarinic receptor (Homo sapiens, UniProt P11229); assay: Functional mobilization of intracellular calcium (FLIPR) in M1-CHO cells; format: cell-based
T1 construct: expressed in transfected cells; host or cells: CHO (M1-CHO)
T1 sequence (P11229 1-460): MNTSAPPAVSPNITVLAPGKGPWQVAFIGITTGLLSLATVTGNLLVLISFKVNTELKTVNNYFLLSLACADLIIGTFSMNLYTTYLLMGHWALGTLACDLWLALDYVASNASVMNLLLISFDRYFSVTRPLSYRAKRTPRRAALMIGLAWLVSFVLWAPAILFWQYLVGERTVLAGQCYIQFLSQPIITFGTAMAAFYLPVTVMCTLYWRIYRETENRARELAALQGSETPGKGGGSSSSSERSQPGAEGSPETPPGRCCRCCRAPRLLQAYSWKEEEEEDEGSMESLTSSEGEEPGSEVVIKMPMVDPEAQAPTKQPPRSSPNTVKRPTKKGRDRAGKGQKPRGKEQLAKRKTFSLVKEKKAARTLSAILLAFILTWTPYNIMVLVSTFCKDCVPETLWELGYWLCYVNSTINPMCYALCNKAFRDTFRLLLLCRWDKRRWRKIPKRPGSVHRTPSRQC
Outline: (§1)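 Measured via Fluo-3 fluorescence on a FLIPR, CHO cells with either muscarinic subtype received compound in 0.5% DMSO. Antagonism was assessed after 15 min pre-incubation followed by carbachol at each subtype's EC80; agonism from compound addition alone.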

M4 muscarinic receptor = target: T2, M4 muscarinic receptor (Homo sapiens, UniProt P08173); assay: Functional mobilization of intracellular calcium (FLIPR) in M4-CHO cells; format: cell-based
T2 construct: expressed in transfected cells; host or cells: CHO (M4-CHO)
T2 sequence (P08173 1-479): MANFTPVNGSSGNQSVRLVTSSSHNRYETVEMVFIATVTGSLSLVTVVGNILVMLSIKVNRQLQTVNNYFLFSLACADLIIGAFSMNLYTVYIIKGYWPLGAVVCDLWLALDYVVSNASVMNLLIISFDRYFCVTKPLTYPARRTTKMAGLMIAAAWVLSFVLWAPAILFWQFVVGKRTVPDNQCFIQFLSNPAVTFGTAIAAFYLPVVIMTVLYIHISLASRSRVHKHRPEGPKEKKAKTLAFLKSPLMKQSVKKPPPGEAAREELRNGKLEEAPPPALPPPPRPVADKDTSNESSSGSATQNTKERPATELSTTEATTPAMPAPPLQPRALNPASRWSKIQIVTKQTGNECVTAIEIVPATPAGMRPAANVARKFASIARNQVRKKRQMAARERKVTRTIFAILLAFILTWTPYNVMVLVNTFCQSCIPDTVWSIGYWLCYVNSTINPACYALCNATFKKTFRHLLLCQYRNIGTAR
Outline: as §1

[1] = Table 4, 100% efficacy is the maximum response obtained with the Carbachol control
[2] = Table 4, modulating M1 receptor
[3] = Table 4, modulating M4 receptor
[4] = M1 receptor, calcium mobilization
[5] = M1 receptor, calcium mobilization, read-out: M1 Efficacy
[6] = M4 receptor, calcium mobilization
[7] = M4 receptor, calcium mobilization, read-out: M4 Efficacy
[8] = Table 4, M1 receptor, calcium mobilization (FLIPR)
[9] = Table 4, M4 receptor, calcium mobilization (FLIPR)

Compound	Emax (M1 muscarinic receptor; [1]) [%]	M1 Activity (M1 muscarinic receptor; [2])	Emax (M4 muscarinic receptor; [1]) [%]	M4 Activity (M4 muscarinic receptor; [3])	M1 Activity (M1 muscarinic receptor; [4])	Emax (M1 muscarinic receptor; [5]) [%]	M4 Activity (M4 muscarinic receptor; [6])	Emax (M4 muscarinic receptor; [7]) [%]	M1 Activity (M1 muscarinic receptor; [8])	M4 Activity (M4 muscarinic receptor; [9])
CC(=O)N[C@H]1CCC2(CCN([C@@H]3CC4CC[C@@H]3C4)CC2)c2ccccc21 [compound 696]	25 to 100	xx (activity was measured to be between 2.0 μM and 5.0 μM)	25 to 100	xxx (activity was measured to be less than 2.0 μM)	–	–	–	–	–	–
CCOC(=O)N1CCC(C)(CN2CCC3(CC2)C[C@H](NC(C)=O)c2ccccc23)CC1 [compound 315]	–	–	–	–	x (activity was measured to be greater than 1.0 μM)	< 65	x (activity was measured to be greater than 1.0 μM)	< 65	–	–
COC(=O)N1CCC(N2CCC3(CC2)CN(C(=O)N(C)C)c2ccc(F)cc23)CC1 [compound 154]	–	–	–	–	xxx (activity was measured to be less than 0.1 μM)	65 to 85	xxx (activity was measured to be less than 0.1 μM)	> 85	–	–
Clc1ccc2c(c1)C1(CCN(C3CCCCC3)CC1)CO2 [compound 5]	–	–	–	–	xxx (activity was measured to be less than 0.1 μM)	65 to 85	xxx (activity was measured to be less than 0.1 μM)	> 85	–	–
CC(=O)N1CC2(CCN(C3CCN(C(=O)OC4CCC4)CC3)CC2)c2cc(C)ccc21 [compound 151]	–	–	–	–	xxx (activity was measured to be less than 0.1 μM)	> 85	xxx (activity was measured to be less than 0.1 μM)	> 85	–	–
COC(=O)N1CC[C@@H](CN2CCC3(CC2)CN(C(C)=O)c2ccccc23)C1 [compound 923]	25 to 100	–	25 to 100	–	–	–	–	–	xx (activity was measured to be between 2.0 μM and 5.0 μM)	xxx (activity was measured to be less than 2.0 μM)
CC(CF)OC(=O)N1CCC(N2CCC3(CC2)CN(C(=O)N(C)C)c2ccc(F)cc23)CC1 (centres unmarked) [compound 987]	25 to 100	–	25 to 100	–	–	–	–	–	xxx (activity was measured to be less than 2.0 μM)	xxx (activity was measured to be less than 2.0 μM)
CC(=O)N[C@H]1CC2(CCN(C3C4CC5CC(C4)CC3C5)CC2)c2ccccc21 (some centres unmarked) [compound 4]	–	–	–	–	xxx (activity was measured to be less than 0.1 μM)	< 65	x (activity was measured to be greater than 1.0 μM)	< 65	–	–
O=C(OC1CCCC1)N1C2CCC1CC(N1CCC3(CC1)C(=O)Nc1ccccc13)C2 (centres unmarked) [compound 271]	–	–	–	–	xxx (activity was measured to be less than 0.1 μM)	65 to 85	xxx (activity was measured to be less than 0.1 μM)	< 65	–	–
O=C(N[C@H]1CC2(CCN(CC3CCCCC3)CC2)c2ccccc21)C1CCCC1 [compound 448]	< 25	x (activity was measured to be greater than 5.0 μM)	< 25	xxx (activity was measured to be less than 2.0 μM)	–	–	–	–	–	–
CN(C)C(=O)N1CC2(CCN(C3CCN(C(=O)c4ccoc4)CC3)CC2)c2cc(F)ccc21 [compound 900]	< 25	–	< 25	–	–	–	–	–	xx (activity was measured to be between 2.0 μM and 5.0 μM)	x (activity was measured to be greater than 5.0 μM)
COc1cc2c(cc1OC)C1(CCN(C3CCCCC3)CC1)C[C@@H]2N(C(C)=O)[C@@H](C)c1ccccc1 [compound 643]	< 25	x (activity was measured to be greater than 5.0 μM)	< 25	x (activity was measured to be greater than 5.0 μM)	–	–	–	–	–	–
CC(=O)N1CC2(CCN(C3CC4CCC(C3)N4C(=O)OCC3CC3)CC2)c2ccccc21 (centres unmarked) [compound 439]	25 to 100	xxx (activity was measured to be less than 2.0 μM)	25 to 100	xxx (activity was measured to be less than 2.0 μM)	–	–	–	–	–	–
CCCC(=O)N[C@H]1CC2(CCN(CC3CCCCC3)CC2)c2ccccc21 [compound 797]	25 to 100	x (activity was measured to be greater than 5.0 μM)	25 to 100	xxx (activity was measured to be less than 2.0 μM)	–	–	–	–	–	–
